According to patent US20050164951A1, “Inhibitors for the soluble epoxide hydrolase” (The Regents of the University of California, priority 2003, published 2005):
Read-outs that look alike come from different tables or passages of the source. Values belong to the molecule of their own block, whether it stands above or below them.

Columns and labels:
[1] = target: T1, human sEH (Homo sapiens, UniProt P34913); experiment: Inhibition of recombinant human sEH, IC50 assay with 4-nitrophenyl-trans-2,3-epoxy-3-phenylpropyl carbonate as substrate; assay type: biochemical; conditions: for IC90: 0.24 μM enzyme
T1 construct: made in house; host or cells: baculovirus expression system
T1 sequence (P34913 1-555): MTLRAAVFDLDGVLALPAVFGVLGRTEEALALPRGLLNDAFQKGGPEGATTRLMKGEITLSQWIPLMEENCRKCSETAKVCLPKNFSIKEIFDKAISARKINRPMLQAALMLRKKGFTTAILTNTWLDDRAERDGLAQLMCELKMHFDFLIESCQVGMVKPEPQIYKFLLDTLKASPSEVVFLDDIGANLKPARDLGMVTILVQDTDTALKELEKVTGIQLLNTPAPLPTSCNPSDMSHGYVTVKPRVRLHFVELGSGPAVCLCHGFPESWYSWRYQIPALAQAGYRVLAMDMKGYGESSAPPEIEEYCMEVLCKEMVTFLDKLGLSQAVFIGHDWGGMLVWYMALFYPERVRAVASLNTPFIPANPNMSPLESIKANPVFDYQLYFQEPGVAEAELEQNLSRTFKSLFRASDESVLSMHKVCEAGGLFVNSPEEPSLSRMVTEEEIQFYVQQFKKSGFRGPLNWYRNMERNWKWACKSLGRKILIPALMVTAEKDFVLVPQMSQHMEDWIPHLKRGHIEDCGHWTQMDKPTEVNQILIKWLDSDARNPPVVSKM
Description: (§1) Assays were performed in triplicate. […] The curve was generated from at least three separate runs, each in triplicate, to obtain the standard deviation (SD) given in Table 1 thru Table 4.

[2] = target: T2, mouse sEH (Mus musculus, UniProt P34914); experiment: Inhibition of recombinant mouse sEH, IC50 assay with 4-nitrophenyl-trans-2,3-epoxy-3-phenylpropyl carbonate as substrate; assay type: biochemical
T2 construct: made in house; host or cells: baculovirus expression system
T2 sequence (P34914 1-554): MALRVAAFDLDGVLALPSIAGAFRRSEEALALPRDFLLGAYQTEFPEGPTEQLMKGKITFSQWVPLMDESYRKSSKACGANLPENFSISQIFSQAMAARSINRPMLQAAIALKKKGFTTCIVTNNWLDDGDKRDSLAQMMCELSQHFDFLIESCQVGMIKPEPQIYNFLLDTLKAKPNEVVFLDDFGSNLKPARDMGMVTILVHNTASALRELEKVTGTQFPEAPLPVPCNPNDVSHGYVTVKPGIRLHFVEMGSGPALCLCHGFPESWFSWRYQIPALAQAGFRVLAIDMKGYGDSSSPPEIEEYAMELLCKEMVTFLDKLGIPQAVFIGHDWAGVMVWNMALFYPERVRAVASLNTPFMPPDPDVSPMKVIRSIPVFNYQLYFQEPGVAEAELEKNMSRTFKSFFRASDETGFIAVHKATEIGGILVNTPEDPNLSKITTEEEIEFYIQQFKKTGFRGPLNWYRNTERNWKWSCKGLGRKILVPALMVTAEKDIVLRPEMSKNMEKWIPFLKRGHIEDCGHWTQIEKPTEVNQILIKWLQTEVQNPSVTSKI
Description: as §1

[3] = Table 5, 5 min preincubation, pH 7.4, 30° C., means ± SD
[4] = Table 5, […] enzyme, 5 min preincubation, pH 7.4, 30° C., means ± SD, read-out: Human sEH IC50
[5] = Table 5, 0.12 μM enzyme, 5 min preincubation, pH 7.4, 30° C., means ± SD
[6] = Table 5, […] enzyme, 5 min preincubation, pH 7.4, 30° C., means ± SD, read-out: Mouse sEH IC50
[7] = Tables 17a and b, read-out: IC50 (μM) Human sEH
[8] = Tables 17a and b, read-out: IC50 (μM) Mouse sEH
[9] = Table 9, established protocols, read-out: IC50 (μM) Human sEH
[10] = Table 9, established protocols, read-out: IC50 (μM) Mouse sEH
[11] = Table 8, established protocols, read-out: IC50 (μM) Human sEH
[12] = Table 8, established protocols, read-out: IC50 (μM) Mouse sEH

Structure (SMILES): CCOC(=O)CCCOC(=O)CCCNC(=O)NC12CC3CC(CC(C3)C1)C2 [Compound 858]
IC90 [1, 3]: 5000 ± 100 nM
IC50 [1, 4]: 0.12 ± 0.01 µM
IC90 [2, 5]: 160 ± 10 nM
IC50 [2, 6]: 0.05 ± 0.01 µM

Structure (SMILES): CCOC(=O)CCOC(=O)CCCNC(=O)NC12CC3CC(CC(C3)C1)C2 [Compound 876]
IC90 [1, 3]: 9000 ± 2000 nM
IC50 [1, 4]: 0.54 ± 0.05 µM
IC90 [2, 5]: 630 ± 20 nM
IC50 [2, 6]: 0.05 ± 0.01 µM

Structure (SMILES): O=C(CC1CCCCC1)Nc1cccc(Cl)c1 [Compound 966]
IC50 [1, 7]: 2.1 ± 0.01 µM
IC50 [2, 8]: 0.58 ± 0.01 µM

Structure (SMILES): COC(=O)CCNC(=O)NC1CCCCC1 [Compound 635]
IC50 ([1]; Table 1, […] enzyme, 5 min preincubation, pH 7.4, 30° C., [S] = 40 μM, means ± SD of three experiments, read-out: IC50 (μM) Human sEH): 78 ± 4 µM
IC50 ([2]; Table 1, […] enzyme, 5 min preincubation, pH 7.4, 30° C., [S] = 40 μM, means ± SD of three experiments, read-out: IC50 (μM) Mouse sEH): 2.5 ± 0.1 µM

Structure (SMILES): CCOC(=O)CCCCCCOC1CCC(NC(=O)NC23CC4CC(CC(C4)C2)C3)CC1 (centres unmarked) [Compound 961]
IC50 [1, 9]: 0.1 ± 0.01 µM
IC50 [2, 10]: 0.05 ± 0.01 µM

Structure (SMILES): CCCCC(CC)OC(=O)CCCNC(=O)NC12CC3CC(CC(C3)C1)C2 (centres unmarked) [Compound 905]
IC50 [1, 7]: 0.45 ± 0.01 µM
IC50 [2, 8]: 0.13 ± 0.01 µM

Structure (SMILES): CCCCCOC(=O)c1cccc(NC(=O)NC23CC4CC(CC(C4)C2)C3)c1 [Compound 859]
IC50 [1, 9]: 0.1 ± 0.01 µM
IC50 [2, 10]: 0.05 ± 0.01 µM

Structure (SMILES): CCCCCOC(=O)CCCCC(=O)NC12CC3CC(CC(C3)C1)C2 [Compound 834]
IC50 [1, 11]: 2.4 ± 0.2 µM
IC50 [2, 12]: 0.34 ± 0.01 µM

Structure (SMILES): CCOC(=O)c1ccc(COC(=O)C2CCCC(NC(=O)NC34CC5CC(CC(C5)C3)C4)C2)cc1 (centres unmarked) [Compound 942]
IC50 [1, 7]: 0.1 ± 0.01 µM
IC50 [2, 8]: 0.05 ± 0.01 µM

Structure (SMILES): O=C(NCCCCCCCCCCCC(=O)OCc1ccccc1)NC12CC3CC(CC(C3)C1)C2 [Compound 804, 1-(1-Adamantyl)-3-(11-benzyloxycarbonylundecyl)urea]
IC50 ([1]; Table 4, […] enzyme, 5 min preincubation, pH 7.4, 30° C., means ± SD, read-out: IC50 (μM) Human sEH): 0.13 ± 0.01 µM
IC50 ([2]; Table 4, 0.12 μM enzyme, 5 min preincubation, pH 7.4, 30° C., means ± SD, read-out: IC50 (μM) Mouse sEH): 0.07 ± 0.01 µM

Structure (SMILES): CCCCC(CC)OC(=O)C1CCCC(NC(=O)NC23CC4CC(CC(C4)C2)C3)C1 (centres unmarked) [Compound 904]
IC50 ([1]; read-out: IC50 (μM) Human sEH): 0.1 ± 0.01 µM
IC50 [2, 10]: 0.05 ± 0.01 µM

Structure (SMILES): O=C(CCCCCCOCCOCCOCc1ccccc1)NC12CC3CC(CC(C3)C1)C2 [Compound 959]
IC50 [1, 11]: 0.11 ± 0.02 µM
IC50 [2, 12]: 0.05 ± 0.01 µM

Structure (SMILES): CC(C)=CCCC(C)CCOCCCCCNC(=O)NC12CC3CC(CC(C3)C1)C2 (centres unmarked) [Compound 915]
IC50 [1, 7]: 0.12 ± 0.01 µM
IC50 [2, 8]: 0.05 ± 0.01 µM

Structure (SMILES): CCCCCOC(=O)c1ccc(NC(=O)NC23CC4CC(CC(C4)C2)C3)cc1 [Compound 860]
IC50 [1, 9]: 0.1 ± 0.01 µM
IC50 [2, 10]: 0.05 ± 0.01 µM

The next lines start with the values.

IC50 [1, 7]: 8.7 ± 0.01 µM
IC50 [2, 8]: 1.3 ± 0.01 µM
Structure (SMILES): O=C(NN1CCOCC1)NC12CC3CC(CC(C3)C1)C2 [Compound 1015]

IC50 [1, 9]: 0.1 ± 0.01 µM
IC50 [2, 10]: 0.05 ± 0.01 µM
Structure (SMILES): CC(C)=CCOC1CCC(NC(=O)NC23CC4CC(CC(C4)C2)C3)CC1 (centres unmarked) [Compound 983]

IC50 [1, 7]: 0.25 ± 0.01 µM
IC50 [2, 8]: 0.1 ± 0.01 µM
Structure (SMILES): CCCCC(CO)NC(=O)NC1CCCCC1 (centres unmarked) [Compound 977]

IC50 [1, 7]: 0.29 ± 0.01 µM
IC50 [2, 8]: 0.05 ± 0.01 µM
Structure (SMILES): CC(C)c1cccc2c(S(=O)(=O)NCCCOCCCCCNC(=O)NC34CC5CC(CC(C5)C3)C4)cccc12 [Compound 986]

IC50 [1, 7]: 0.1 ± 0.01 µM
IC50 [2, 8]: 0.05 ± 0.01 µM
Structure (SMILES): CC(C)OCCOCCOCCCCCNC(=O)NC12CC3CC(CC(C3)C1)C2 [Compound 974]

IC50 [1, 9]: 0.1 ± 0.01 µM
IC50 [2, 10]: 0.05 ± 0.01 µM
Structure (SMILES): O=C(NC1CCC(OCCOCCOCC(F)(F)F)CC1)NC12CC3CC(CC(C3)C1)C2 (centres unmarked) [Compound 985]

IC50 [1, 7]: 0.12 ± 0.01 µM
IC50 [2, 8]: 0.07 ± 0.01 µM
Structure (SMILES): O=C(CC12CC3CC(CC(C3)C1)C2)NCCCc1ccccc1 [Compound 967]

IC50 [1, 7]: 0.1 ± 0.01 µM
IC50 [2, 8]: 0.05 ± 0.01 µM
Structure (SMILES): CC(O)c1cccc2c(S(=O)(=O)NCCOCCOCCCCCNC(=O)NC34CC5CC(CC(C5)C3)C4)cccc12 (centres unmarked) [Compound 976]

IC50 [1, 7]: 22.1 ± 0.01 µM
IC50 [2, 8]: 11 ± 0.01 µM
Structure (SMILES): CCCCCNC(=O)NC(CO)c1ccccc1 (centres unmarked) [Compound 995]
